Results on one compound are retold here after PMC7335359, “Design and Synthesis of Dihydroxamic Acids as HDAC6/8/10 Inhibitors” (Chemmedchem, 2020).

Assay [1] concerns acetylation of tubulin (HDAC6 substrate). The experiment in a line: Western blot of tubulin acetylation in SK-N-BE(2)C cells. Format: cell-based. On the procedure: (§1) Western blot analysis of SMC3, tubulin and histone H3 acetylation: For the analysis of protein acetylation, 1.5–2×10^6 SK‐N‐BE(2)‐C cells were seeded per 10 cm dish and allowed to adhere overnight. Cells were treated for 18 h (Figure 4B) or 6 h (Figure 4E) with inhibitors at concentrations indicated in the respective figure. Cells were lysed in SDS lysis buffer (2 % w/v SDS, 10 % v/v glycerol, 1 mM DTT, 62.5 mM TRIS, pH 6.8) and proteins were denatured at 95 °C for 10 min. Cell debris was removed by centrifugation (15 000 g for 10 min at 12 °C). Western blot analysis was performed as described before.7a The following antibodies were used: anti‐acetylated tubulin (6‐11B‐1; Sigma) anti‐acetylated SMC3 (kindly provided by Katsuhiko Shirahige, Institute for Molecular and Cellular Biosciences, University of Tokyo, Japan),35 anti acetylated histone H3 (#06‐911, Millipore), anti histone H3 (#9715, Cell Signaling Technology) and anti β‐actin (#5441, Sigma‐Aldrich).
On the technique in general: Immunoblotting shows a protein as a band on a membrane.

For assay [2], the system named is acetylation of histone H3 (HDAC1 substrate). As to the kind of experiment: Western blot of histone H3 acetylation in SK-N-BE(2)C cells. In kind it is cell-based. As to the method: as §1

Consider `O=C(NO)c1ccc(Cc2c[nH]c3ccc(C(=O)NO)cc23)cc1` [Compound 3d], for which the “acetylation of tubulin (HDAC6 substrate), Western blot” value in assay [1] was “increases acetylation”. Further, in assay [2], the “acetylation of histone H3 (HDAC1 substrate), Western blot” value is “significantly weaker effects”.
